A short description of this series: Pharmacokinetic drug levels in whole brain after 10 mpk oral dose in DIO mice. In kind it is in vivo. The conditions noted are these: harvested 0.5-24 h after the dose.

In the case of `O=C(Nc1ccc(Oc2ccccc2)cc1)Nc1ccc2c(cnn2CCN2CCCC2)c1` [Example 24, N-(4-phenoxyphenyl)-N′-[1-(2-pyrrolidin-1-ylethyl)-1H-indazol-5-yl]urea], the “Brain Conc. AUC” value was found to be 1428 ng·h/g.

The values are drawn from patent US7071182B2, “Antagonists of melanin concentrating hormone effects on the melanin concentrating hormone receptor” (Abbott Laboratories, priority 2003, dated 2006).
